# Laboratory results reported in patent US7476650B2, “Enzyme inhibition” (Yale University, priority 1999, dated 2009).
# Like-named read-outs stand apart in the source and are kept apart here. Where a SMILES comes first, the peptide text is derived from it. The star is where a group is joined. X1 = CC(C)C[C@H](N*)C(=O)[C@@]1(C)CO1
# Tests used:
# [1] = molecular target: T1, chymotrypsin-like activity of purified bovine erythrocyte 20S proteasome (Bos taurus, UniProt Q32KL2); assay: Enzyme kinetic assay, chymotrypsin-like activity (Suc-LLVY-AMC); format: biochemical; settings: for kobs/[I] Chymotrypsin-like: Table 3; for kinact/KI: pH 8, inhibitor concentration range in parentheses; for kobs/[I] for chymotryptic-like activity using Suc-LLVY-AMC: Examples 9 and 10, in M-1s-1
# T1 construct: from tissue; host or cells: bovine erythrocytes (red blood cells)
# Text: (§1) We investigated the potency of inhibitors of various length. Mono-, di-,tri- and tetraleucine α′,β′-epoxides were ranked by determination of the kobs/[I] values for inhibition of the chymotrypsin-like, trypsin-like, and PGPH activities of purified bovine erythrocyte 20S proteasome.
# (§2) Purified bovine erythrocyte proteasome was enzymatically assayed using a variety of different substrates and inhibitors. In order to evaluate the rates of proteolytic inactivation by inhibitors, kassociation (kobs/[I]) values were determined using fluorogenic peptide substrates over a range of inhibitor concentrations.
# [2] = molecular target: T2, PGPH activity of purified bovine erythrocyte 20S proteasome (Bos taurus, UniProt Q3MHN0); assay: Enzyme kinetic assay, PGPH activity (Z-LLE-AMC); format: biochemical; settings: for kobs/[I] PGPH: Table 3; for selectivity for the PGPH activity: in words, data not shown for Glu compounds; for kinact/KI: pH 8, inhibitor concentration range in parentheses; for kobs/[I] for PGPH activity using Z-LLE-AMC: Examples 9 and 10
# T2 construct: from tissue; host or cells: bovine erythrocytes (red blood cells)
# Method: as §1, with “proteasome. Enzyme kinetic assays were performed as described in Example 2.” for “proteasome.”
# as §2
# [3] = molecular target: T3, trypsin-like activity of purified bovine erythrocyte 20S proteasome (Bos taurus, UniProt Q2TBP0); assay: Enzyme kinetic assay, trypsin-like activity (Boc-LRR-AMC); format: biochemical; settings: for kinact/KI: pH 8, inhibitor concentration range in parentheses; for inhibition of the trypsin-like activity of the proteasome: in words; for kobs/[I] Trypsin-like: Table 3; for kobs/[I] for tryptic-like activity using Boc-LRR-AMC: Examples 9 and 10
# T3 construct: from tissue; host or cells: bovine erythrocytes (red blood cells)
# Text: as §1, §2
# [4] = tested on: bovine aortic endothelial (BAE) cells; assay: BAE cell proliferation ([methyl-3H]-thymidine incorporation); format: cell-based; settings: Table 6; PGPH-directed inhibitors
# Method: BAE cells were cultured at 7% CO2 and were grown in DMEM supplemented with 10% FBS, 1% penicillin/streptomycin (GIBCO), and 1 mM sodium pyruvate.
# Approximately 1000 BAE cells were plated into each well of a 96-well culture plate. After an overnight incubation, different concentrations of proteasome inhibitors were added and incubation was continued for another five days. […] Subsequently, 74 kBq of [methyl-^3H]-thymidine was added to each well of the plate and the plate was incubated for another additional 4 hours. Cells were harvested using a Skatron Cell Harvester and incorporated radioactivity was quantified using liquid scintillation. Proliferation of BAE cells was assayed in triplicate in the presence of different concentrations of peptide epoxides.
# Perturbation of the proteasome activity can result in inhibition of cell growth, and can further lead to cell death at elevated concentration of the proteasome inhibitors. This provides an excellent cell-based assay to assess the importance of each catalytic activity of the 20S proteasome in degradation of proteins involved in cell growth. We measured inhibition of proliferation of bovine aortic endothelial (BAE) cells with our α′,β′-epoxyketone-based inhibitors with varying degree of specificity for the PGPH activity.
# [5] = Table 4, read-out: kassoc = kobs/[I] Chymotrypsin-like activity
# [6] = Table 4, read-out: kassoc = kobs/[I] PGPH activity
# [7] = Table 4, read-out: kassoc = kobs/[I] Trypsin-like activity
# [8] = Table 1, read-out: kobs/[I] Chymotrypsin-like activity
# [9] = Table 1, read-out: kobs/[I] PGPH activity
molecule,measurement,setting,value
CC(=O)N1CCC[C@H]1C(=O)N1CCC[C@H]1C(=O)N[C@@H](Cc1ccccc1)C(=O)N[C@@H](CC(C)C)C(=O)[C@@]1(C)CO1 [Ac-PPFL-Ex],kobs/[I] Chymotrypsin-like,[1],6.4 ± 3.3 M⁻¹ s⁻¹
same,kobs/[I] PGPH,[2],10.6 ± 0.3 M⁻¹ s⁻¹
"CC(=O)N1CCC[C@H]1C(=O)N[C@@H](Cc1ccccc1)C(=O)N[C@@H](CCC(=O)O)C(=O)[C@@]1(C)CO1 [Ac-Pro-Phe-Glu-α′,β′-epoxyketone]",selectivity for the PGPH activity,[2],did not display any significant selectivity
"CC(C)[C@H](O)[C@@]12NC(=O)[C@H](C)[C@@H]1OC2=O [drawing 17, reference compound]",kinact/KI,[1]; [5],7400 M⁻¹ s⁻¹
same,kinact/KI,[2]; [6],47 M⁻¹ s⁻¹
same,kinact/KI,[3]; [7],68 M⁻¹ s⁻¹
CC(C)C[C@H](NC(=O)[C@H](Cc1ccccc1)NC(=O)c1cnccn1)B(O)O [reference compound],kinact/KI,[1]; [5],53000 M⁻¹ s⁻¹
same,kinact/KI,[2]; [6],3200 M⁻¹ s⁻¹
CC(C)C[C@H](NC(=O)[C@H](Cc1ccccc1)NC(=O)[C@@H]1CCCN1C(=O)c1ccc(N(C)C)cc1)C(=O)[C@@]1(C)CO1 [N-dimethylaminobenzoyl-PFL-EX],kobs/[I] Chymotrypsin-like,[1],220 ± 70 M⁻¹ s⁻¹
same,kobs/[I] PGPH,[2],150 ± 40 M⁻¹ s⁻¹
same,selectivity for the PGPH activity,[2],no selectivity
same,inhibition of the trypsin-like activity of the proteasome,[3],no inhibition
same,IC50,[4],0.4 µM
"isooctanoyl-Ser-Leu-α′,β′-epoxyketone [Eponemycin, reference compound]",kobs/[I] Chymotrypsin-like,[1],58 ± 14 M⁻¹ s⁻¹
same,kobs/[I] PGPH,[2],175 ± 2 M⁻¹ s⁻¹
same,selectivity for the PGPH activity,[2],modest selectivity toward the PGPH activity
same,kobs/[I] Trypsin-like,[3],17 ± 3 M⁻¹ s⁻¹
CCCC[C@H](NC(C)=O)C(=O)N1CCC[C@H]1C(=O)N[C@@H](Cc1ccccc1)C(=O)N[C@@H](CC(C)C)C(=O)[C@@]1(C)CO1 [Ac-NorLPFL-Ex],kobs/[I] Chymotrypsin-like,[1],1.9 ± 0.6 M⁻¹ s⁻¹
same,selectivity: fold higher kobs/[I] for inhibition of the PGPH activity than the chymotrypsin-like activity,[2]; PGPH vs chymotrypsin-like,60 fold
same,kobs/[I] PGPH,[2],115 ± 15 M⁻¹ s⁻¹
same,inhibition of the trypsin-like activity of the proteasome,[3],no inhibition
same,IC50,[4],53 µM
CC(=O)N[C@@H](Cc1cccc2ccccc12)C(=O)N[C@@H](CC(C)C)C(=O)N[C@@H](CC(C)C)C(=O)N[C@@H](CC(C)C)C(=O)[C@@]1(C)CO1 [P4 I -naphthyl],kobs/[I] for chymotryptic-like activity using Suc-LLVY-AMC,[1],"29,000"
same,kobs/[I] for PGPH activity using Z-LLE-AMC,[2],not measurable
same,kobs/[I] for tryptic-like activity using Boc-LRR-AMC,[3],not measurable
"isooctanoyl-Ser-Glu-α′,β′-epoxyketone",selectivity for the PGPH activity,[2],poor PGPH-selective inhibitors
CC(=O)N[C@@H](C)C(=O)N[C@H](C(=O)N[C@@H](CC(C)C)C(=O)[C@@]1(C)CO1)C(C)C [Ac-AVL-Ex],kobs/[I] Chymotrypsin-like,[1],10.8 ± 0.2 M⁻¹ s⁻¹
same,kobs/[I] PGPH,[2],12.7 ± 1.3 M⁻¹ s⁻¹
same,kobs/[I] Trypsin-like,[3],1.8 ± 0.1 M⁻¹ s⁻¹
CC(=O)N[C@@H](CC(C)C)C(=O)N[C@@H](CC(C)C)C(=O)N[C@@H](CC(C)C)C(=O)N[C@@H](CC(C)C)C(=O)[C@@]1(C)CO1,kinact/KI,[1]; [8],14000 M⁻¹ s⁻¹
same,kinact/KI,[2]; [9],9.2 M⁻¹ s⁻¹
same,kobs/[I] for tryptic-like activity using Boc-LRR-AMC,[3],not measurable
CC(=O)N[C@@H](CC(C)C)C(=O)N[C@@H](Cc1cccc2ccccc12)C(=O)N[C@@H](CC(C)C)C(=O)N[C@@H](CC(C)C)C(=O)[C@@]1(C)CO1 [P3 1-naphthyl],kobs/[I] for chymotryptic-like activity using Suc-LLVY-AMC,[1],"31,000"
same,kobs/[I] for PGPH activity using Z-LLE-AMC,[2],not measurable
same,kobs/[I] for tryptic-like activity using Boc-LRR-AMC,[3],not measurable
CC(C)C[C@H](NC(=O)[C@@H](N)CCc1ccccc1)C(=O)N[C@@H](Cc1ccccc1)C(=O)N[C@@H](CC(C)C)C(=O)[C@@]1(C)CO1 [compound 18],kobs/[I] for chymotryptic-like activity using Suc-LLVY-AMC,[1],5200
same,kinact/KI,[1]; [5],5200 M⁻¹ s⁻¹
same,kinact/KI,[2]; [6],11 M⁻¹ s⁻¹
same,kobs/[I] for tryptic-like activity using Boc-LRR-AMC,[3],580 M⁻¹ s⁻¹
same,kinact/KI,[3]; [7],580 M⁻¹ s⁻¹
CC(C)C[C@@H](/C=C/S(C)(=O)=O)NC(=O)[C@H](CC(C)C)NC(=O)[C@H](CC(C)C)NC(=O)Cc1cc(N)c(O)c(I)c1 [reference compound],kinact/KI,[1]; [5],5000 M⁻¹ s⁻¹
same,kinact/KI,[2]; [6],4 M⁻¹ s⁻¹
same,kinact/KI,[3]; [7],3.4 M⁻¹ s⁻¹
"CC[C@H](C)[C@H](NC(C)=O)C(=O)N[C@H](C(=O)N[C@H](C(=O)N[C@@H](CCC(=O)O)C(=O)[C@@]1(C)CO1)[C@@H](C)O)[C@@H](C)CC [Ac-Ile-Ile-Thr-Glu-α′,β′-epoxyketone]",selectivity for the PGPH activity,[2],did not display any significant selectivity
"isooctanoyl-Thr-Glu-α′,β′-epoxyketone",selectivity for the PGPH activity,[2],poor PGPH-selective inhibitors
CC(=O)N[C@@H](CC(C)C)C(=O)N[C@@H](CC(C)C)C(=O)N[C@@H](Cc1cccc2ccccc12)C(=O)N[C@@H](CC(C)C)C(=O)[C@@]1(C)CO1 [P2 1-naphthyl],kobs/[I] for chymotryptic-like activity using Suc-LLVY-AMC,[1],"29,000"
same,kobs/[I] for PGPH activity using Z-LLE-AMC,[2],not measurable
same,kobs/[I] for tryptic-like activity using Boc-LRR-AMC,[3],not measurable
CC(=O)N[C@@H](CCc1ccccc1)C(=O)N[C@@H](CC(C)C)C(=O)N[C@@H](CC(C)C)C(=O)N[C@@H](CC(C)C)C(=O)[C@@]1(C)CO1 [P4 methylphenyl],kobs/[I] for chymotryptic-like activity using Suc-LLVY-AMC,[1],"63,000"
same,kobs/[I] for PGPH activity using Z-LLE-AMC,[2],50
same,kobs/[I] for tryptic-like activity using Boc-LRR-AMC,[3],5.4 M⁻¹ s⁻¹
"CC(=O)NCC(=O)N1CCC[C@H]1C(=O)N[C@@H](Cc1ccccc1)C(=O)N[C@@H](CCC(=O)O)C(=O)[C@@]1(C)CO1 [Ac-Gly-Pro-Phe-Glu-α′,β′-epoxyketone]",selectivity for the PGPH activity,[2],did not display any significant selectivity
"CC(=O)N[C@@H](C)C(=O)N[C@H](C(=O)N[C@@H](CCC(=O)O)C(=O)[C@@]1(C)CO1)C(C)C [Ac-Ala-Val-Glu-α′,β′-epoxyketone]",selectivity for the PGPH activity,[2],did not display any significant selectivity
CC(=O)N[C@@H](Cc1ccc(C(=O)c2ccccc2)cc1)C(=O)N[C@@H](CC(C)C)C(=O)N[C@@H](CC(C)C)C(=O)N[C@@H](CC(C)C)C(=O)[C@@]1(C)CO1 [P4 p-benzoylphenyl],kobs/[I] for chymotryptic-like activity using Suc-LLVY-AMC,[1],"23,000"
same,kobs/[I] for PGPH activity using Z-LLE-AMC,[2],not measurable
same,kobs/[I] for tryptic-like activity using Boc-LRR-AMC,[3],not measurable
CC(=O)NCC(=O)NCC(=O)N1CCC[C@H]1C(=O)N[C@@H](Cc1ccccc1)C(=O)N[C@@H](CC(C)C)C(=O)[C@@]1(C)CO1 [Ac-GGPFL-Ex] (Ac-GGPF-X1),kobs/[I] Chymotrypsin-like,[1],170 ± 60 M⁻¹ s⁻¹
same,kobs/[I] PGPH,[2],170 ± 30 M⁻¹ s⁻¹
same,kobs/[I] Trypsin-like,[3],1.3 ± 0.3 M⁻¹ s⁻¹
CC(=O)N1CCC[C@H]1C(=O)N[C@@H](Cc1ccccc1)C(=O)N[C@@H](CC(C)C)C(=O)[C@@]1(C)CO1 [Ac-PFL-Ex],kobs/[I] Chymotrypsin-like,[1],42 ± 2 M⁻¹ s⁻¹
same,kobs/[I] PGPH,[2],32 ± 6 M⁻¹ s⁻¹
CC(=O)N[C@@H](CC(C)C)C(=O)N[C@@H](CC(C)C)C(=O)[C@@]1(C)CO1,kinact/KI,[1]; [8],3.1 M⁻¹ s⁻¹
CC(=O)N[C@@H](CC(C)C)C(=O)N[C@@H](CC(C)C)C(=O)N[C@@H](CC(C)C)C(=O)[C@@]1(C)CO1,kinact/KI,[1]; [8],780 M⁻¹ s⁻¹
same,kinact/KI,[2]; [9],120 M⁻¹ s⁻¹
same,kinact/KI,"[3]; Table 1, read-out: kobs/[I] trypsin-like activity",5.1 M⁻¹ s⁻¹
CC[C@H](C)[C@H](NC(C)=O)C(=O)N[C@H](C(=O)N[C@@H](CC(C)C)C(=O)[C@@]1(C)CO1)C(C)C [Ac-IVL-Ex],kobs/[I] Chymotrypsin-like,[1],5 ± 0.1 M⁻¹ s⁻¹
same,kobs/[I] PGPH,[2],14.6 ± 4.2 M⁻¹ s⁻¹
same,kobs/[I] Trypsin-like,[3],6.7 ± 0.1 M⁻¹ s⁻¹
CC(=O)N[C@@H](Cc1ccccc1)C(=O)N[C@@H](CC(C)C)C(=O)N[C@@H](CC(C)C)C(=O)N[C@@H](CC(C)C)C(=O)[C@@]1(C)CO1 [P4 phenyl],kobs/[I] for chymotryptic-like activity using Suc-LLVY-AMC,[1],"37,000"
same,kobs/[I] for PGPH activity using Z-LLE-AMC,[2],78
same,kobs/[I] for tryptic-like activity using Boc-LRR-AMC,[3],5.5 M⁻¹ s⁻¹
CC(=O)N1CCC(C(=O)N2CCC[C@H]2C(=O)N[C@@H](Cc2ccccc2)C(=O)N[C@@H](CC(C)C)C(=O)[C@@]2(C)CO2)CC1 [N-acetyl-piperidinecarbonyl-PFL-Ex],kobs/[I] Chymotrypsin-like,[1],31.2 ± 0.6 M⁻¹ s⁻¹
same,kobs/[I] PGPH,[2],45.3 ± 2.2 M⁻¹ s⁻¹
"CC[C@H](C)[C@H](NC(C)=O)C(=O)N[C@H](C(=O)N[C@@H](CCC(=O)O)C(=O)[C@@]1(C)CO1)C(C)C [Ac-Ile-Val-Glu-α′,β′-epoxyketone]",selectivity for the PGPH activity,[2],did not display any significant selectivity
